Values of other authors as cited in patent US20040101542A1, “Skin care composition with retinyl ester as vitamin a propionate retinyl palmitate d-alpha tocopherol rice amino acids and liposomes and method of application” (priority 2003, published 2004).

Settings: at 24 hours

CC1=C(/C=C/C(C)=C/C=C/C(C)=C/C(=O)O)C(C)(C)CCC1 [retinoic acid]
uptake and distribution in the deeper skin strata, liposomal formulations versus solutions or emulsions: 3-4 times higher
